pEC50: −log10 of the molar value.
Columns and labels:
STAT6 = target: T1, STAT6 (Homo sapiens, UniProt P42226); assay: Stat6 Degrader Assay (HiBiT based, HeLa LgBiT clone 4.14); format: cell-based; conditions: HeLa LgBiT clone 4.14 HiBiT-STAT6, 4-24 h incubation; values given for compounds with >80% Emax; geometric mean; read-out: STAT6 degradation DC50
T1 construct: These cells express endogenous STAT6; host or cells: HeLa LgBiT clone 4.14
T1 sequence (P42226 1-847): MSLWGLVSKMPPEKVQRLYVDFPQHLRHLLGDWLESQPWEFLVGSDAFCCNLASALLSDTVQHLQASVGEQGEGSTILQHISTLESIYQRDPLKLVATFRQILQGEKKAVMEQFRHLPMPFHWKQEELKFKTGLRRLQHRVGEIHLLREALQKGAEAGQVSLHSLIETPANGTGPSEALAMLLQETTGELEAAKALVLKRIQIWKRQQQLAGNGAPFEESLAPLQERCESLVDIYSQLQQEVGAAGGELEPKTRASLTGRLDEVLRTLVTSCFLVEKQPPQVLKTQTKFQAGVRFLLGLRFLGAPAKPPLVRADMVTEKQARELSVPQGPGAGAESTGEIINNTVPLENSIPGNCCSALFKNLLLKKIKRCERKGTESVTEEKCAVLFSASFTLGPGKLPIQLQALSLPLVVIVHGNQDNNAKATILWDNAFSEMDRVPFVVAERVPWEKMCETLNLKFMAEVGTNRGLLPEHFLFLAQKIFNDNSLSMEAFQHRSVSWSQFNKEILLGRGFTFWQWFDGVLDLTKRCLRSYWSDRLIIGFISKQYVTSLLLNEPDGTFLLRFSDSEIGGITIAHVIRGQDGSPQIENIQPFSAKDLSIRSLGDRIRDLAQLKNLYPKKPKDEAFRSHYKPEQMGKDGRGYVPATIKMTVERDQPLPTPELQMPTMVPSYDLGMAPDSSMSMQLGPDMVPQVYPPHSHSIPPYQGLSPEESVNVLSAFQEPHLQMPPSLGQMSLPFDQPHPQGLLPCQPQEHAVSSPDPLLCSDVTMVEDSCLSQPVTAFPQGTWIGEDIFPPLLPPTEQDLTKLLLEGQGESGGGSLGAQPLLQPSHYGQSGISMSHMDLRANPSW
Procedure, shortened: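 Luminescence from HiBiT-STAT6 complementing stably expressed LgBiT in HeLa clone 4.14 reports remaining STAT6 protein. Cells (5000/well) exposed to compound for 4-24 h at 37° C; read 0.5 h after Nano-Glo addition. 100% degradation window set with 50 μM terfenadine; percent degradation plotted against concentration.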

[1] = test system: Eotaxin-3 release in human whole blood stimulated with IL-4; assay: Human Whole Blood Eotaxin-3 Assay (IL-4 stimulated eotaxin-3 release); format: cell-based; conditions: IL-4 stimulation, 48 h, values given for compounds with >80% Emax, geometric mean
Procedure, shortened: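 Eotaxin-3 (CCL26) release measured by MSD kit in plasma supernatant after 48 h IL-4 stimulation ([…]) of human whole blood. Compounds added in triplicate 4-fold dilutions 2 h before stimulation; 0.5% DMSO final, 37° C, 5% CO2.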

Compound | DC50 (STAT6) | pEC50 [1]
CNc1cc(=O)n(-c2ccnc3c2cc(CN2CC=C(c4c(F)cc(C(=O)N5CCC(CN6CCN(Cc7ccc8c(c7)n(C)c(=O)n8C7CCC(=O)NC7=O)C[C@@H]6C)CC5)cc4F)CC2)n3C)cc1F (stereo partly drawn) [Example 3u54, 3-(5-(((S)-4-((1-(3,5-difluoro-4-(1-((4-(5-fluoro-4-(methylamino)-2-oxopyridin-1 (2H)-yl)-1-methyl-1H-pyrrolo[2,3-b]pyridin-2-yl)methyl)-1,2,3,6-tetrahydropyridin-4-yl)benzoyl)piperidin-4-yl)methyl)-3-methylpiperazin-1-yl)methyl)-3-methyl-2-oxo-2,3-dihydro-1H-benzo[d]imidazol-1-yl)piperidine-2,6-dione] | 12 nM | 8.57
CNc1cc(=O)n(-c2ccnc3c2cc(CN2CCC(c4c(F)cc(C(=O)N5CCC(CN6CCN(Cc7ccc8c(c7)C(C)(C)C(=O)N8C7CCC(=O)NC7=O)CC6)CC5)cc4F)CC2)n3C)cc1F (stereo not shown) [Example 3u57, 3-(5-((4-((1-(3,5-difluoro-4-(1-((4-(5-fluoro-4-(methylamino)-2-oxopyridin-1 (2H)-yl)-1-methyl-1H-pyrrolo[2,3-b]pyridin-2-yl)methyl)piperidin-4-yl)benzoyl)piperidin-4-yl)methyl)piperazin-1-yl)methyl)-3,3-dimethyl-2-oxoindolin-1-yl)piperidine-2,6-dione] | 12 nM | 7.60
CNc1cc(=O)n(-c2ccnc3c2cc(CN2CCC(c4c(F)cc(C(=O)N5CCC(CN6CCN(Cc7ccc8c(c7)n(C)c(=O)n8C7CCC(=O)NC7=O)C[C@@H]6C)CC5)cc4F)CC2)n3C)cc1F (stereo partly drawn) [Example 3u60, 3-(5-(((S)-4-((1-(3,5-difluoro-4-(1-((4-(5-fluoro-4-(methylamino)-2-oxopyridin-1 (2H)-yl)-1-methyl-1H-pyrrolo[2,3-b]pyridin-2-yl)methyl)piperidin-4-yl)benzoyl)piperidin-4-yl)methyl)-3-methylpiperazin-1-yl)methyl)-3-methyl-2-oxo-2,3-dihydro-1H-benzo[d]imidazol-1-yl)piperidine-2,6-dione] | 0.7 nM | 8.80
CNc1cc(=O)n(-c2ccnc3c2cc([C@H](C)N2CC=C(c4c(C)cc(C(=O)N5CCC(CN6CCN(c7ccc8c(c7)C7(CC7)C(=O)N8C7CCC(=O)NC7=O)C[C@@H]6C)CC5)cc4F)CC2)n3C)cc1F (stereo partly drawn) [Example 3u63, 3-(5′-((S)-4-((1-(3-fluoro-4-(1-((S)-1-(4-(5-fluoro-4-(methylamino)-2-oxopyridin-1 (2H)-yl)-1-methyl-1H-pyrrolo[2,3-b]pyridin-2-yl)ethyl)-1,2,3,6-tetrahydropyridin-4-yl)-5-methylbenzoyl)-piperidin-4-yl)methyl)-3-methylpiperazin-1-yl)-2′-oxospiro[cyclopropane-1,3′-indolin]-1′-yl)-piperidine-2,6-dione] | 12.9 nM | 7.17
CNc1cc(=O)n(-c2ccnc3c2cc([C@H](C)N2CC=C(c4c(C)cc(C(=O)N5CCC(CN6CCN(Cc7ccc8c(c7)C7(CC7)C(=O)N8C7CCC(=O)NC7=O)CC6)CC5)cc4F)CC2)n3C)cc1F (stereo partly drawn) [Example 3u66, 3-(5′-((4-((1-(3-fluoro-4-(1-((S)-1-(4-(5-fluoro-4-(methylamino)-2-oxopyridin-1 (2H)-yl)-1-methyl-1H-pyrrolo[2,3-b]pyridin-2-yl)ethyl)-1,2,3,6-tetrahydropyridin-4-yl)-5-methylbenzoyl)-piperidin-4-yl)methyl)piperazin-1-yl)methyl)-2′-oxospiro[cyclopropane-1,3′-indolin]-1′-yl)piperidine-2,6-dione] | 1.6 nM | 8.37
C[C@H]1CN(Cc2ccc3c(c2)C2(CC2)C(=O)N3C2CCC(=O)NC2=O)CCN1CC1CCN(C(=O)c2cc(F)c(C3CCN(Cc4cc5c(-n6ccc7c(c6=O)CCN7)ccnc5n4C)CC3)c(F)c2)CC1 (stereo partly drawn) [Example 3u69, 3-(5′-(((S)-4-((1-(3,5-difluoro-4-(1-((1-methyl-4-(4-oxo-1,2,3,4-tetrahydro-5H-pyrrolo[3,2-c]pyridin-5-yl)-1H-pyrrolo[2,3-b]pyridin-2-yl)methyl)piperidin-4-yl)benzoyl)piperidin-4-yl)methyl)-3-methylpiperazin-1-yl)methyl)-2′-oxospiro[cyclopropane-1,3′-indolin]-1′-yl)piperidine-2,6-dione] | 1.5 nM | 8.62
CNc1ccn(-c2ccnc3c2cc(CN2CC=C(c4c(F)cc(C(=O)N5CCC(CN6CCN(Cc7ccc8c(c7)n(C7CC7)c(=O)n8C7CCC(=O)NC7=O)C[C@@H]6C)CC5)cc4F)CC2)n3C)c(=O)c1 (stereo partly drawn) [Example 3u71, 3-(3-cyclopropyl-5-(((S)-4-((1-(3,5-difluoro-4-(1-((1-methyl-4-(4-(methylamino)-2-oxopyridin-1 (2H)-yl)-1H-pyrrolo[2,3-b]pyridin-2-yl)methyl)-1,2,3,6-tetrahydropyridin-4-yl)benzoyl)piperidin-4-yl)methyl)-3-methylpiperazin-1-yl)methyl)-2-oxo-2,3-dihydro-1H-benzo[d]imidazol-1-yl)piperidine-2,6-dione] | 5.3 nM | 8.74

The remaining molecules from weak to strong by DC50 (STAT6), led by results:

DC50 (STAT6) | pEC50 [1] | Compound
16.1 nM | 7.62 | CNc1cc(=O)n(-c2ccnc3c2cc(CN2CC=C(c4c(F)cc(C(=O)N5CCC(CN6CCN(Cc7ccc8c(c7)C(C)(C)C(=O)N8C7CCC(=O)NC7=O)C[C@@H]6C)CC5)cc4F)CC2)n3C)cc1F (stereo partly drawn) [Example 3u77, 3-(5-(((S)-4-((1-(3,5-difluoro-4-(1-((4-(5-fluoro-4-(methylamino)-2-oxopyridin-1 (2H)-yl)-1-methyl-1H-pyrrolo[2,3-b]pyridin-2-yl)methyl)-1,2,3,6-tetrahydropyridin-4-yl)benzoyl)piperidin-4-yl)methyl)-3-methylpiperazin-1-yl)methyl)-3,3-dimethyl-2-oxoindolin-1-yl)piperidine-2,6-dione]
3.1 nM | 8.28 | Cc1cc(C(=O)N2CCC(CN3CCN(Cc4ccc5c(c4)n(C)c(=O)n5C4CCC(=O)NC4=O)CC3)CC2)cc(F)c1C1=CCN([C@@H](C)c2cc3c(-n4cc(F)c5c(c4=O)CCN5)ccnc3n2C)CC1 (stereo partly drawn) [Example 3u85, 3-(5-((4-((1-(3-fluoro-4-(1-((S)-1-(4-(7-fluoro-4-oxo-1,2,3,4-tetrahydro-5H-pyrrolo[3,2-c]pyridin-5-yl)-1-methyl-1H-pyrrolo[2,3-b]pyridin-2-yl)ethyl)-1,2,3,6-tetrahydropyridin-4-yl)-5-methylbenzoyl)piperidin-4-yl)methyl)piperazin-1-yl)methyl)-3-methyl-2-oxo-2,3-dihydro-1H-benzo[d]imidazol-1-yl)piperidine-2,6-dione]
0.8 nM | 8.30 | CNc1ccn(-c2ccnc3c2cc([C@H](C)N2CCC(c4c(F)cc(C(=O)N5CCC(CN6CCN(Cc7ccc8c(c7)C(C)(C)C(=O)N8C7CCC(=O)NC7=O)C[C@@H]6C)CC5)cc4F)CC2)n3C)c(=O)c1 (stereo partly drawn) [Example 3u80, 3-(5-(((S)-4-((1-(3,5-difluoro-4-(1-((S)-1-(1-methyl-4-(4-(methylamino)-2-oxopyridin-1 (2H)-yl)-1H-pyrrolo[2,3-b]pyridin-2-yl)ethyl)piperidin-4-yl)benzoyl)piperidin-4-yl)methyl)-3-methyl-piperazin-1-yl)methyl)-3,3-dimethyl-2-oxoindolin-1-yl)piperidine-2,6-dione]
0.6 nM | 8.96 | Cc1cc(C(=O)N2CCC(CN3CCN(Cc4cc5c(cc4F)n(C4CCC(=O)NC4=O)c(=O)n5C)CC3)CC2)cc(F)c1C1=CCN([C@@H](C)c2cc3c(-n4ccc5c(c4=O)CCN5)ccnc3n2C)CC1 (stereo partly drawn) [Example 3u74, 3-(6-fluoro-5-((4-((1-(3-fluoro-5-methyl-4-(1-((S)-1-(1-methyl-4-(4-oxo-1,2,3,4-tetrahydro-5H-pyrrolo[3,2-c]pyridin-5-yl)-1H-pyrrolo[2,3-b]pyridin-2-yl)ethyl)-1,2,3,6-tetrahydro-pyridin-4-yl)benzoyl)piperidin-4-yl)methyl)piperazin-1-yl)methyl)-3-methyl-2-oxo-2,3-dihydro-1H-benzo[d]imidazol-1-yl)piperidine-2,6-dione]
